“Also recorded” adds a separate entry of the source.

One assay concerns mouse cortical neurons. Put plainly: Morphological integrity evaluation, NMDA 8 μM (MAP2 neurite length and branching). In kind it is cell-based. The settings on record: 3 h pre-treatment, NMDA 8 μM 24 h, Z>0.5 criteria. A digest of the protocol:
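Mouse cortical neurons (14 DIV) pre-treated 3 h with compounds, then exposed 24 h to 8 μM NMDA; fixed, MAP2 immunostained with DAPI. Total neurite length and non-trunk branch number from 15 images/well, triplicates, converted to plate-based Z-scores; NAC positive, staurosporine and NMDA negative controls.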

Assay [1] relates to mouse cortical and striatal neurons. As to the kind of experiment: Morphological integrity evaluation, NMDA 20 μM. In kind it is cell-based. The settings on record: 1 μM, 24 h pre-treatment, NMDA 20 μM 24 h. Here is the method: Morphological integrity evaluation. Mouse cortical and striatal neurons (14 DIV) cultured in MW96 plates were exposed to 1 uM to 60 uM concentrations of NMDA and relationship between the NMDA dose and fiber length was evaluated. […] Each of the compound was tested in quadruplicate. The fiber length was evaluated by MAP2 staining (please see the method described earlier).
42 compounds were screened to evaluate the morphological integrity of cortical and striatal neurons upon chronic (24 h) NMDA exposure at concentration of 20 μM with compounds pre-treatment (24 h) in preventive regimen (FIG. 17).

Assay [2] relates to rat oligodendrocyte progenitor CG4 line. Put plainly: Differentiation assay on rat oligodendrocyte progenitor CG4 line (HCS, mCherry+). Format: cell-based. The following applies: secondary screen of 49 selected compounds, 1 μM, 5 days. A digest of the protocol:
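Double-reporter CG4 cells (mCherry in mature oligodendrocytes, EGFP in all lineage stages) proliferated 24 h, then given compounds at 1 μM for 5 days of differentiation, ⅔ medium changed at day 3. 9cis-RA as positive control, basal medium and 0.1% DMSO as negative; triplicates imaged by HCS, 35 fields/well.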

The subject of assay [3] is H9-derived human neural stem cells. As to the kind of experiment: Neurotoxic or regenerative effect screening (CellTiter-Glo). Format: cell-based. The settings on record: 10 μM, three independent screenings. The method, then: H9-derived human neural stem cells (H9 hNSCs, Gibco) were cultured according to the manufacturer's instructions. Briefly, H9 hNSCs were expanded and subsequently differentiated in neurobasal medium, 2% B27, 1% Glutamax, and 1% penicillin/streptomycin, supplemented with 10 ng/ml BDNF (Peprotech), and 2 ng/ml recombinant human GDNF (Peprotech). After 7 days, 500 μM of db-cAMP (N6,2′-O-dibutyryladenosine 3′,5′-cyclic monophosphate, Sigma) was added.
The metabolic activity/viability of selected compounds (32 “Front Runners”+24 compounds from the “Short list”) was evaluated by CellTiter-Glo® Luminescent Cell Viability Assay. The primary screen of Front Runner List (32 compounds)+24 compounds from Short List) on H9-derived human neurons was performed at 10 μM concentration. The validation of hits from primary screen on H9-derived human neurons was performed at 10 μM concentration.
32 Front Runners were tested at 10 μM on H9-derived human neuronal cultures and viability was evaluated by CellTiter-Glo® Luminescent Cell Viability Assay.
(Cellular ATP, detected with luciferase, serves as a proxy for viable cell number.)

In another assay the test system is rat primary OPC cultures. Put plainly: Differentiation of rat primary OPC into MBP+ OLs. Format: cell-based. The following applies: 96 h, 4 days of differentiation, read-out: MBP+ differentiation (MBP+/SOX10+ OLs plus compounds / plus basal medium). An outline of the steps:
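Primary rat OPCs were differentiated for 4 days with compounds at […], in triplicate over 3 independent experiments. Cells were immunolabelled for CNPase, MBP and SOX10, and MBP+ oligodendrocytes were counted by imaging. Results are fold increase in MBP+/SOX10+ cells over basal medium; 9-cis-RA ([…]) was the positive control.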

In assay [4] the test system is human iPS-derived neuroprecursors. As to the kind of experiment: Differentiation of human iPS-derived neuroprecursors into MBP+ oligodendrocytes. In kind it is cell-based. The following applies: 1 μM in minimal medium, p<0.05. An excerpt: NPC bearing a doxycycline inducible polycistronic construct containing SOX10, OLIG2 and NKX6.2^29 in a human safe harbor (passages 10 to 25) were singularized on day −3 by treatment with Accutase and plated on Matrigel-coated 12-well plates at a density of 100.000 cells per well in N2B27-medium containing equal parts of neurobasal (Invitrogen) and DMEM-F12 medium (Invitrogen) with 1:100 B27 supplement lacking vitamin A (Invitrogen), 1:200 N2 supplement (Invitrogen), 1% penicillin/streptomycin/glutamine (PSG), 3 μM CHIR99021 (Axon Medchem), 150 μM ascorbic acid and 0.5 μM SAG. The next day medium was changed to N2B27-medium containing 1 μg/ml doxycycline. On DO medium was changed to glial-induction medium (GIM) consisting of DMEM-F12 with 1:100 B27 supplement lacking vitamin A, 1:200 N2 supplement, 1% PSG, 1 μM SAG, 10 ng/mL NT3 (Peprotech), 10 ng/mL IGF-I (Peprotech), 200 μM AA (Sigma), 1:1000 Trace Elements B (Corning). For full medium conditions 10 ng/ml T3 was added. On Day 2 medium was changed to glial-differentiation medium (GDM) comprising DMEM-F12 with 1:100 B27 supplement lacking vitamin A, 1:200 N2 supplement, 1% PSG, 100 μM dbCAMP (Sigma), 100 μM AA, 1:1000. For full medium conditions 60 ng/mL T3, Trace Elements B 10 ng/mL, IGF-I, 10 ng/mL and NT3 were added to the culture. GDM was changed every other day. On day 7 cells were detached by treatment with Accutase and re-plated on laminin coated 48-well plates at densities of 10.000-12.000 cells per well. After 24 h cells were treated in minimal medium with either vehicle alone [0.01% (vol/vol) DMSO] as a negative control, 60 ng/mL T3 as a positive control, or with a drug candidate dissolved in DMSO. Medium was changed every other day. On D16 doxycycline was removed from the medium. Cells were fixed on D21 and analyzed via immunocytochemistry.
Immunocytochemistry. Cells were initially fixed with 4% PFA treatment for 20 min, RT. Following three washes with PBS cells were incubated with blocking solution containing 5% normal goat serum (NGS) and 5% FCS (fetal calf serum) in PBS for 30 min at RT to prevent unspecific binding of the antibodies. To detect intracellular antigens cells were permeabilized by adding 0.5% Triton X-100 to the Blocking-solution. Cells treated with Triton X-100 were washed three times with PBS each time for 5 min at RT. Primary antibodies (rat anti-MBP,1:50, Abcam, AB7349) were applied overnight, 4° C., in blocking solution. The next day cells were washed 3 times with PBS at RT, and afterwards incubated with secondary antibodies (AF488 Alexa Fluor anti-rat (goat), 1:500, Jackson/Dianova, #112-545-167) diluted in PBS for 1 h at RT. Secondary antibodies were subsequently removed by washing 3 times with PBS. Afterwards PBS containing a Dapi staining for nuclei was added for 5 minutes and afterwards washed off with PBS. Cells were kept at 4° C. until imaging.
Imaging and evaluation. From each condition (triplicates) 20-30 pictures were taken randomly chosen by the Dapi-signal. Cell numbers were determined by using an ImageJ Macro to count the nuclei whereas MBP positive cells were subsequently counted manually in black and white images.
The effect on oligodendroglial differentiation of 32 compounds (“Front runners”) was tested. Induced pluripotent stem cells in which the transcription factors SOX10, OLIG2, NKX6.2 were inserted in a doxycycline inducible manner into a human safe harbor were differentiated into neural stem cells. Differentiation into oligodendrocytes was induced by addition of doxycycline. Cells were cultured either in a minimal medium (MM) (negative control) or in MM with the different compounds at a concentration of 1 μM. Addition of T3 to the minimal medium served as a positive control.

Assay [5] deals with murine cortical neurons (14 DIV). Put plainly: NMDA-mediated neuroprotective assay (CCK8 viability). In kind it is cell-based, mouse. The following applies: 1 μM, 3 h pre-treatment, NMDA 8 μM 24 h, p<0.05. Here is the method:
To assess neuroprotective activity of 160 selected non-toxic compounds on primary murine cortical neurons, obtained as described in the previous paragraph, ([…]), cultures were pre-treated with 1 μM compounds for either 3 or 24 hours, followed by 24 hours chronic stimulation with NMDA (8 μM) to induce neuronal damage. Each test plate included: a negative control (untreated), vehicle-treated control (0.02% vol/vol DMSO), a positive neurotoxic control—staurosporine 0.1 μM, a stressor—NMDA 8 μM, a positive neuroprotective control—NAC 300 μM, and a combination of stressor +neuroprotective molecule (NMDA+NAC). Cell viability was measured with Cell Counting Kit-8 assay compared to NMDA-treated control.
The potential neuroprotective activity of 160 selected non-toxic compounds was evaluated on murine cortical neurons (14 DIV) with either 3 h (FIG. 13) or 24 h compounds pre-treatment (FIG. 14). In assay with 3 h pre-treatment, 17 compounds were identified as potential NMDA-neuroprotective hits (marked with black asterisk in FIG. 13, stat. significant at p<0.05, Kruskal-Wallis test with post-hoc two-stage linear step-up procedure of Benjamini, Krieger and Yekutieli multiple comparison correction).

Assay [6] has as its system iPSC-derived glutamatergic neurons. Put plainly: ROS (tBuOOH)-mediated neuroprotective assay on hNeu. Format: cell-based, human. The settings on record: control line CTR4, 1 μM, p<0.05. Here is the method: Neuroprotective experiments were performed using iPSC-derived glutamatergic neurons from 3 healthy controls cultured for 30-40 DIV. Cells were pre-treated for 24 h with […] of compounds, vehicle (DMSO) or 5 nM Mito-Q (mitoquinone) served as a positive control. On the next day cells were incubated for 2 h with 100 µM of tert-butyl peroxide (tBuOOH, Sigma), then the medium was replaced and the viability readout by CCK8 viability assay kit (Dojindo) was performed on the following day. The cell viability was expressed as normalized Z score and compared to tBuOOH-treated cells with nonparametric Kruskal-Wallis test with Dunn's multiple comparisons correction.
32 “Front runners” and 7 compounds from short list were tested on iPSC-derived neurons from three control lines in ROS-mediated assay to evaluate a neuroprotective potential of selected compounds. Three independent experiments were performed for CTR4 and CTR8, FIG. 20 (A, C), while two independent experiments were performed for CTR7, FIG. 20 (B).

With `O=c1[nH]c2cccc(N3CCN(Cc4cccc(-c5ccccc5)c4)CC3)c2o1` [Bifeprunox], the “preservation of neurite length and network integrity (branching)” value with mouse cortical neurons is “preserved both neurite length and the network integrity (branching)”; in the assay on mouse cortical neurons (listed as BIFEPRUNOX), “two best-performing compounds”. The “morphological integrity (neurite length) of cortical and striatal neurons” value (from here on “morphological integrity (neurite length)”) in assay [1] is “selected for confirmation”.
Take `C=CCc1ccccc1OCC(O)CNC(C)C` (stereo not drawn) [Alprenolol]: the “CG4 differentiation compared with 9cis-RA positive control” value (“CG4 differentiation” for short) in assay [2] is on record as “promoting differentiation significantly higher than 9cis-RA positive control”. Further, the “cumulative Z-scores of ATP production/viability” value in assay [3] is given as “potential hits”. Also, the fold induction at 1 µM in the assay with rat primary OPC cultures was greater than 1.6.
As to `COc1ccc(S(=O)(=O)n2cc(CCC(=O)O)c3cc(OC)ccc32)cc1` [Indeglitazar], the “CG4 differentiation” value in assay [2] is recorded as “promoting differentiation significantly higher than 9cis-RA positive control”. The “cumulative Z-scores of ATP production/viability” value in assay [3] is on record as “potential hits”. For the same molecule, in the assay with rat primary OPC cultures, the fold induction at 1 µM was greater than 1.6. Further, the “differentiation into MBP+ oligodendrocytes” value in assay [4] is recorded as “promote significantly (p<0.05) the differentiation into MBP+ oligodendrocytes”.
`COc1ccc2c(OCc3nnc4ccc(-c5ccccc5)nn34)ccnc2c1` [AMG-208]: in assay [1], the “morphological integrity (neurite length)” value is reported as “selected for confirmation”.
For the molecule `C[C@@H](C(=O)O)c1ccc(-c2ccccc2)c(F)c1` [Tarenflurbil], the “morphological integrity (neurite length)” value in assay [1] is “selected for confirmation”. The “neuroprotection of viability/metabolic activity against NMDA” value in assay [5] is given as “trend versus significance”.
For `COc1ccc(Cl)cc1[C@]1(F)C(=O)Nc2cc(C(F)(F)F)ccc21` [Flindokalner], the “morphological integrity (neurite length)” value in assay [1] is listed as “selected for confirmation”.
With `CNC(=O)c1ccc(Oc2ccc3c(c2)CCN(C2CCC2)CC3)nc1` [GSK189254], in assay [2], the “CG4 differentiation” value is “promoting differentiation significantly higher than 9cis-RA positive control”. Besides, the “differentiation into MBP+ oligodendrocytes” value is recorded as “promote significantly (p<0.05) the differentiation into MBP+ oligodendrocytes” in assay [4] and “promote significantly the differentiation into MBP+ oligodendrocytes” in assay [4] (listed as Gsk189254). The “neuroprotection of viability/metabolic activity against NMDA” value in assay [5] is recorded as “hit compounds”. Moreover, the “protection from tBuOOH insult” value in assay [6] was “protected from tBuOOH insult”.
With `O=C(Oc1ccc(Br)cc1)N1CCN2CCC1CC2` [SSR180711], the “preservation of neurite length and network integrity (branching)” value in the assay on mouse cortical neurons is “preserved both neurite length and the network integrity (branching); also recorded: two best-performing compounds”. Moreover, the “morphological integrity (neurite length)” value in assay [1] is recorded as “selected for confirmation”. Moreover, in assay [5], the “neuroprotection of viability/metabolic activity against NMDA” value is given as “hit compounds”.
Regarding `Cc1c(Cn2c(C)nc3c(C(=O)O)cc(N4CCOCC4)cc32)cccc1C(F)(F)F` [GSK-2636771], in assay [1], the “morphological integrity (neurite length)” value was “selected for confirmation”.
On the same count and under the same terms, then `CCC(COC(=O)c1cc(OC)c(OC)c(OC)c1)(c1ccccc1)N(C)C` (stereo not drawn) [Trimebutine], with “hit-compound in both cortical and striatal neuronal assays”.
For the molecule `Cc1ncc(OC[C@@]2(c3cccc(F)c3)C[C@H]2C(=O)Nc2ccc(F)cn2)c(C)n1` [Lemborexant], the “CG4 differentiation” value in assay [2] is given as “promoting differentiation significantly higher than 9cis-RA positive control”. Besides, the “cumulative Z-scores of ATP production/viability” value in assay [3] is listed as “potential hits”. In the assay with rat primary OPC cultures, the fold induction at 1 µM was greater than 1.6.

For the origin of these results see patent publication US20240148745A1, “COMPOUNDS FOR USE IN PROGRESSIVE MULTIPLE SCLEROSIS” (FONDAZIONE CENTRO SAN RAFFAELE, priority 2021, published 2024).
